Consider 17 compounds from PubChem BioAssay AID330 (DTP/NCI, 2004).

“And” between values parts separate entries of the source, which are not always exact repeats. Identical values can stand only once. Toxic doses and inconclusive results are not listed.

The assay concerns P388 leukemia ip, CD2F1 mice, survival T/C. As to the kind of experiment: NCI In Vivo Anticancer Drug Screen. Data for tumor model P388 Leukemia (intraperitoneal) in CD2F1 (CDF1) mice. The settings on record: endpoint: median survival time, higher = longer survival. The procedure, abridged:
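Mice carrying the transplanted tumor received test compound or vehicle. Survival was recorded in each group, and the value is the treated-group measurement divided by that of the vehicle-treated control group.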

[1] abbreviates: dose: 50.0 mg/kg/injection, schedule: Q01DX009 (ip), vehicle: Klucel (hydroxypropylcellulose) (HPC).
Where [2] appears, read: dose: 25.0 mg/kg/injection, schedule: Q01DX009 (ip), vehicle: saline.
The mark [3] stands for this setting: dose: 50.0 mg/kg/injection, schedule: Q01DX009 (ip), vehicle: saline.

Regarding `COC(=O)/C=C/COc1ccccc1C(=O)NCc1ccc([N+](=O)[O-])cc1`, the T/C was 109 % of control (dose: 100.0 mg/kg/injection, schedule: Q04DX003 (ip), vehicle: Klucel (hydroxypropylcellulose) (HPC)); 108 % of control (dose: 200.0 mg/kg/injection, schedule: Q04DX003 (ip), vehicle: Klucel (hydroxypropylcellulose) (HPC)); 109 % of control (dose: 400.0 mg/kg/injection, schedule: Q04DX003 (ip), vehicle: Klucel (hydroxypropylcellulose) (HPC)).
Turning to `C=C(C)C1(C(=O)OCC(Cl)(Cl)Cl)NC(=O)C(NC(=O)COc2ccccc2)=CO1` (centres undefined), the T/C reads like this: (dose: 50.0 mg/kg/injection, schedule: Q01DX005 (ip), vehicle: saline with Tween-80) 99 % of control; (dose: 100.0 mg/kg/injection, schedule: Q01DX005 (ip), vehicle: saline with Tween-80) 88 % of control; (dose: 200.0 mg/kg/injection, schedule: Q01DX005 (ip), vehicle: saline with Tween-80) 95 % of control.
As to `COCCOCCOCCOCCn1cc(F)c(=O)[nH]c1=O`, the T/C is, setting by setting: (dose: 50.0 mg/kg/injection, schedule: Q04DX002 (ip), vehicle: saline) 104 % of control; (dose: 100.0 mg/kg/injection, schedule: Q04DX002 (ip), vehicle: saline) 94 % of control; (dose: 200.0 mg/kg/injection, schedule: Q04DX002 (ip), vehicle: saline) 100 % of control; (dose: 400.0 mg/kg/injection, schedule: Q04DX002 (ip), vehicle: saline) 94 % of control.
With `Clc1nc(Cl)nc(Nc2ccccc2Cl)n1`, the T/C (dose: 6.25 mg/kg/injection, schedule: Q01DX009 (ip), vehicle: Klucel (hydroxypropylcellulose) (HPC)) is 96 % of control; the T/C (dose: 12.5 mg/kg/injection, schedule: Q01DX009 (ip), vehicle: Klucel (hydroxypropylcellulose) (HPC)) was 99 % of control; the T/C (dose: 25.0 mg/kg/injection, schedule: Q01DX009 (ip), vehicle: Klucel (hydroxypropylcellulose) (HPC)) is 96 % of control; the T/C under setting [1] is 99 % of control.
On to `COc1cc(N(CCCl)CCCl)c(OC)cc1C=Nc1cccc(Br)c1`, for which the T/C runs as follows: (dose: 6.25 mg/kg/injection, schedule: Q01DX009 (ip), vehicle: saline) 113 % of control; (dose: 12.5 mg/kg/injection, schedule: Q01DX009 (ip), vehicle: suspension in saline) 116 % of control; under setting [2], 167 % of control; (dose: 25.0 mg/kg/injection, schedule: Q01DX009 (ip), vehicle: suspension in saline) 124 % of control; under setting [3], 254 % of control; (dose: 50.0 mg/kg/injection, schedule: Q01DX009 (ip), vehicle: suspension in saline) 150 % of control.
Take `CCC(=O)N(C)[C@@H](C)C(=O)O[C@H]1CC(=O)N(C)c2cc(cc(OC)c2Cl)C/C(C)=C/C=C[C@@H](OC)[C@@]2(O)C[C@H](OC(=O)N2)[C@@H](C)[C@@H]2O[C@@]12C`: the T/C (dose: 0.1 micrograms/kg/injection, schedule: Q01DX009 (ip), vehicle: saline) was 105 % of control; the T/C (dose: 0.2 micrograms/kg/injection, schedule: Q01DX009 (ip), vehicle: saline) is 123 % of control; the T/C (dose: 3.1 micrograms/kg/injection, schedule: Q01DX009 (ip), vehicle: saline + alcohol) is 160 % of control; the T/C (dose: 3.1 micrograms/kg/injection, schedule: Q01DX009 (ip), vehicle: saline) is 150 % of control; the T/C (dose: 6.3 micrograms/kg/injection, schedule: Q01DX009 (ip), vehicle: saline + alcohol) was 151 % of control; the T/C (dose: 6.3 micrograms/kg/injection, schedule: Q01DX009 (ip), vehicle: saline) is 161 % of control.
As to `Cn1ncc2c(Nc3ccc(F)cc3)c3ccccc3nc21`, the T/C by setting is: (dose: 60.0 mg/kg/injection, schedule: Q01DX005 (ip), vehicle: Klucel (hydroxypropylcellulose) (HPC)) 97 % of control; (dose: 120.0 mg/kg/injection, schedule: Q01DX005 (ip), vehicle: Klucel (hydroxypropylcellulose) (HPC)) 95 % of control; (dose: 240.0 mg/kg/injection, schedule: Q01DX005 (ip), vehicle: Klucel (hydroxypropylcellulose) (HPC)) 90 % of control.
Turning to `CCCCCCCCCC(C)CC(=O)NCCCN(C)CCCCN(C)C` (centres undefined) (tested in a mixture with another compound), the T/C by setting is: (dose: 0.78 mg/kg/injection, schedule: Q01DX009 (ip), vehicle: saline with Tween-80) 91 % of control; (dose: 1.56 mg/kg/injection, schedule: Q01DX009 (ip), vehicle: saline with Tween-80) 94 % of control; (dose: 3.13 mg/kg/injection, schedule: Q01DX009 (ip), vehicle: saline with Tween-80) 97 % of control; (dose: 6.25 mg/kg/injection, schedule: Q01DX009 (ip), vehicle: saline with Tween-80) 100 % of control.
As for `CNc1cc(Cl)c(Cl)cc1[N+](=O)[O-]`, the T/C (dose: 37.5 mg/kg/injection, schedule: Q04DX003 (ip), vehicle: saline sonified) was 95 % of control; the T/C (dose: 75.0 mg/kg/injection, schedule: Q04DX003 (ip), vehicle: saline sonified) was 95 % of control; the T/C (dose: 150.0 mg/kg/injection, schedule: Q04DX003 (ip), vehicle: saline sonified) is 95 % of control.
For `CC(=O)Oc1c(C)[nH]ccc1=O`, the T/C is 103 % of control and 104 % of control under setting [2]; 107 % of control and 112 % of control and 116 % of control under setting [3]; 116 % of control (dose: 100.0 mg/kg/injection, schedule: Q01DX009 (ip), vehicle: saline); 154 % of control (dose: 200.0 mg/kg/injection, schedule: Q01DX009 (ip), vehicle: saline); 152 % of control and 161 % of control and 179 % of control (dose: 400.0 mg/kg/injection, schedule: Q01DX009 (ip), vehicle: saline); 180 % of control (dose: 800.0 mg/kg/injection, schedule: Q01DX009 (ip), vehicle: saline).
For the compound `O=C(O)/C(=C/c1ccc(/C=C(/C(=O)O)c2ccccc2)o1)c1ccccc1`, the T/C was 101 % of control (dose: 100.0 mg/kg/injection, schedule: Q01DX001 (ip), vehicle: saline with Tween-80); 97 % of control (dose: 200.0 mg/kg/injection, schedule: Q01DX001 (ip), vehicle: saline with Tween-80); 101 % of control (dose: 400.0 mg/kg/injection, schedule: Q01DX001 (ip), vehicle: saline with Tween-80).
With `Brc1ccccc1C(Nc1nncs1)Nc1nncs1`, the T/C was 117 % of control and 123 % of control (dose: 60.0 mg/kg/injection, schedule: Q01DX005 (ip), vehicle: saline with Tween-80); 154 % of control and 156 % of control (dose: 240.0 mg/kg/injection, schedule: Q01DX005 (ip), vehicle: saline with Tween-80); 169 % of control (dose: 480.0 mg/kg/injection, schedule: Q01DX005 (ip), vehicle: saline with Tween-80).
As to `CCOC(=O)NC(NC(=O)OCC)c1ccc(OC)cc1`, the T/C is, setting by setting: (dose: 100.0 mg/kg/injection, schedule: Q04DX003 (ip), vehicle: saline) 100 % of control; (dose: 200.0 mg/kg/injection, schedule: Q04DX003 (ip), vehicle: saline) 91 % of control; (dose: 400.0 mg/kg/injection, schedule: Q04DX003 (ip), vehicle: saline) 94 % of control.
For `COC(C)(C)c1ccccc1[S+]1OC(C)(C)c2ccccc21` (centres undefined), the T/C (dose: 100.0 mg/kg/injection, schedule: Q04DX002 (ip), vehicle: suspension in saline) was 96 % of control; the T/C (dose: 200.0 mg/kg/injection, schedule: Q04DX002 (ip), vehicle: suspension in saline) is 100 % of control; the T/C (dose: 400.0 mg/kg/injection, schedule: Q04DX002 (ip), vehicle: suspension in saline) was 109 % of control.
For the compound `Nc1cc2c(c[n+](CCCCCCC[n+]3cc4c5ccccc5c(N)cc4c4ccccc43)c3ccccc23)c2ccccc12`, the T/C was 150 % of control and 153 % of control (dose: 1.56 mg/kg/injection, schedule: Q04DX003 (ip), vehicle: other); 155 % of control (dose: 3.13 mg/kg/injection, schedule: Q04DX003 (ip), vehicle: other); 150 % of control and 173 % of control (dose: 6.25 mg/kg/injection, schedule: Q04DX003 (ip), vehicle: other); 166 % of control and 180 % of control (dose: 12.5 mg/kg/injection, schedule: Q04DX003 (ip), vehicle: other).
Turning to `NC(CSCCSCC(N)C(=O)O)C(=O)O` (centres undefined), the T/C is 110 % of control under setting [1]; 98 % of control (dose: 100.0 mg/kg/injection, schedule: Q01DX009 (ip), vehicle: Klucel (hydroxypropylcellulose) (HPC)); 104 % of control (dose: 200.0 mg/kg/injection, schedule: Q01DX009 (ip), vehicle: Klucel (hydroxypropylcellulose) (HPC)).
Turning to `C=C1CC2(C=C(C)CCC2C(C)C)OC1=O` (centres undefined), the T/C (dose: 100.0 mg/kg/injection, schedule: Q01DX001 (ip), vehicle: saline) was 101 % of control; the T/C (dose: 200.0 mg/kg/injection, schedule: Q01DX001 (ip), vehicle: saline) is 101 % of control; the T/C (dose: 400.0 mg/kg/injection, schedule: Q01DX001 (ip), vehicle: saline) was 101 % of control.
